# Source: patent publication US4276890A, “Tobacco smoking inhibitor” (priority 1979, dated 1981)
# Values joined by “and” are separate entries in the source; they are usually repeats but may differ in a detail not shown here. Equal entries are not always repeated.
# Tests used:
# mice = settings: cited from earlier work
# [1] = Dissolution in the mouth of gamma pyrone particles dispersed in chewing gum; format: physicochemical; settings: particles 300 to 400 mesh
# Description: The formation of a chewing gum for administering a gamma pyrone according to the invention is next described. Crystaline ethyl maltol was ground and sieved to 300 mesh. The ground particles acquired a static charge, tending to float upwards. In practice, it was possible to sieve the particles upwards, collecting only those which passed through the 300 mesh screen.
# The ground particles were mixed at 45° C. with a plastic chewing gum base, until evenly distributed throughout the mass. The chewing gum base was selected to be free of amino acids, tannins and other flavoring elements capable of combining with gamma pyrone to yield bitter off flavors. The rate of release of gamma pyrone into the oral cavity is a function of the rate of solution of the gamma pyrone as the gum is chewed. The rate of solution is controlled by the size of the gamma pyrone particles dispersed in the gum. Optimally, for ethyl maltol, particles in the size range from 300 to 400 mesh when dispersed in such a matrix, are dissolved in the mouth in about 30 minutes. The gamma pyrone must be dispersed throughout the gum in particulate form to provide the desired sustained release effect, particles […] than 300-400 mesh dissolved more slowly, so that the incremental dose was delivered more slowly. […] particles dissolved more rapidly than desired so that the dose was delivered in an undesirably short time. […]
# [2] = system: convulsions produced by pentylenetetrazole or strychnine; settings: 300 to 500 mg per kg; cited from earlier work
# [3] = system: spontaneous motor activity; settings: mice; relative to maltol; cited from earlier work
# smoking level of smokers = assay: Daily rates of smoking reduction (Example 5, Table II; comparison with placebo groups of Example 6); format: in vivo, human (volunteer smokers); settings: for reduction in smoking level: 1,000 mg/day, eight slowly dissolving lozenges, individual subjects
# Description: Subjects who participated had prior knowledge of the purported effect of the treatment. They were asked to test a new dosage form and told that a "cure" was not necessarily to be expected in this test. The dosage was 1,000 mg/day of ethyl maltol divided over eight pieces of slowly dissolving lozenges, made essentially as described supra. Subjects administered their own dosage without supervision. The tests were designed and supervised by the inventor but carried out by intermediaries, in order to maximize the opportunity for objective evaluation of symptoms, and to minimize any possibility of investigative bias influencing the results. (True double blind tests are impossible because the gamma pyrone flavor is distinctive and virtually impossible to mask). Subjects were all in generally good health, and were selected to represent a variety of ages, occupational stresses, and personal life styles.
# Levels of tobacco consumption were calculated taking into account the number of cigarettes smoked and the proportions smoked. They are expressed as percent reduction from the pretest smoking level.
# During the same time period that the studies in Example Five were conducted, two groups of smokers were administered a placebo dosage comprising the same basic candy lozenge, but lacking any gamma pyrone and containing ascorbic and citric acids to impart a sharp, medicinal flavor.
# This conclusion is further substantiated by analysis of variance. For such analysis, individual tests that were either incomplete or which presented unusual circumstances were discarded. Results from placebo groups one and two were pooled. The average percent reduction in smoking is plotted in FIG. 1, for the treatment and the placebo groups.
# Solubility = format: physicochemical
# Description: The troches were made essentially by conventional candy making techniques. The polysaccharide and starch were first dry blended to substantial uniformity. About 3-4% by weight of water was added to the dry powder to form a thick paste. This paste was then heated to produce a uniform viscous melt. Maltol or ethyl maltol were added to this melt as saturated solutions in boiling water. The water solubility of the gamma pyrones is somewhat limited. For example, one gram of ethyl maltol requires 6 ml of water at 100° C. to dissolve completely. Since the water content of the mixture must be kept low, the amount of ethyl maltol which can be incorporated is about 3-4%, and preferably about 1% by weight of the troche. […] Alternatively, the entire process can be carried out in a suitable pressure apparatus.
# [4] = cited from earlier work
smiles,measurement,setting,value
"CCc1occc(=O)c1O [ethyl maltol, 3-hydroxy-2-ethyl-4-pyrone]",acute LD50,mice,910 mg per kg
same,dissolution time in the mouth from gum,[1],about 30 minutes
same,convulsions produced by pentylenetetrazole or strychnine,[2],inhibited convulsions
same,spontaneous motor activity (in words),[3],"also inhibitory, but somewhat less potent"
same,reduction in smoking level,smoking level of smokers; Day 1,10%
same,reduction in smoking level,smoking level of smokers; Day 2,5% and 15% and 10% and 30% and 20%
same,reduction in smoking level,smoking level of smokers; Day 3,10% and 20% and 5% and 40% and 60% and 30% and 15% and 45%
same,reduction in smoking level,smoking level of smokers; Day 4,40% and 50% and 10% and 65% and 5% and 75% and 70% and 30%
same,reduction in smoking level,smoking level of smokers; Day 5,30% and 80% and 10% and 85% and 60% and 90% and 50% and 35% and 95%
same,reduction in smoking level,smoking level of smokers; Day 6,60% and 95% and 20% and 15% and 50% and 70% and 25%
same,reduction in smoking level,smoking level of smokers; Day 7,50% and 40% and 20% and 90% and 65% and 85% and 30% and 45%
same,reduction in smoking level,smoking level of smokers; Day 8,70% and 55% and 40% and 75% and 15% and 90% and 50%
same,reduction in smoking level,smoking level of smokers; Day 9,80% and 70% and 20% and 65% and 95% and 90%
same,reduction in smoking level,smoking level of smokers; Day 10,85% and 90% and 30% and 70% and 80%
same,discontinuation,"smoking level of smokers; subject 10, after day 5, ""beer tasted funny""",Discontinued
same,solubility in alcoholic solution,Solubility; compared with water,somewhat more soluble
same,solubility,"Solubility; one gram, water at 100° C., read-out: water to dissolve one gram completely (converted)",167 mg/mL
same,absorption,[4]; after oral administration,rapidly absorbed
same,excretion,[4]; after oral administration,rapidly excreted
same,form of excretion,[4]; after oral administration,primarily as glucuronide and ethereal sulfate conjugates
same,metabolism and excretion,[4]; in vivo,rapidly metabolized and excreted
